Data reported in ChEMBL document CHEMBL5291721, “A preclinical secondary pharmacology resource illuminates target-adverse drug reaction associations of marketed drugs” (Nat Commun, 2023).

Assays:
[1] = target: Beta-1 adrenergic receptor (Homo sapiens, UniProt P08588); format: functional
[2] = target: T1, B2 bradykinin receptor (Homo sapiens, UniProt P30411)
T1 sequence (P30411 whole entry): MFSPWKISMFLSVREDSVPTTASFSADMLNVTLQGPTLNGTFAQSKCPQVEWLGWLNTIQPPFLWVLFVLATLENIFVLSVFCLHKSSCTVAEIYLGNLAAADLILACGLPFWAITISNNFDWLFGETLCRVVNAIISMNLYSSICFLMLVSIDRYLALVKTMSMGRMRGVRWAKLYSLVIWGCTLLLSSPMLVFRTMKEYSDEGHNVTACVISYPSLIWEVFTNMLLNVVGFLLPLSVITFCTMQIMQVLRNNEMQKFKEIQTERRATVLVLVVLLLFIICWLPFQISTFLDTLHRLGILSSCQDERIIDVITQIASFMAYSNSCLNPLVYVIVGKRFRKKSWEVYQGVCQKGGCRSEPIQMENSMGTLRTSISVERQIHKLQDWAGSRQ

[3] = target: Cannabinoid receptor 1 (Homo sapiens, UniProt P21554)
[4] = target: T2, Endothelin-1 receptor (Homo sapiens, UniProt P25101)
T2 sequence (P25101 whole entry): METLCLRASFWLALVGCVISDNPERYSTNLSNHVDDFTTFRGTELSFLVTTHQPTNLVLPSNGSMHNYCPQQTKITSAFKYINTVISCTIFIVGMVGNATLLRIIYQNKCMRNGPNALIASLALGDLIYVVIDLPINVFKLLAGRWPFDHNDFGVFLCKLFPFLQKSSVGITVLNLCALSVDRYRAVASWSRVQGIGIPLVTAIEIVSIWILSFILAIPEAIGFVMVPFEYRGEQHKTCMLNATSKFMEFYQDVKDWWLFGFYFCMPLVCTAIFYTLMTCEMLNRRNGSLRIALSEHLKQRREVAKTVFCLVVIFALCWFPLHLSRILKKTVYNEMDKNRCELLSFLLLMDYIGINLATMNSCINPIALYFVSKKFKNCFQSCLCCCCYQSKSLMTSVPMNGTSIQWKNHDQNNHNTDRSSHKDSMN

[5] = target: T3, Progesterone receptor (Homo sapiens, UniProt P06401); format: functional
T3 sequence (P06401 whole entry): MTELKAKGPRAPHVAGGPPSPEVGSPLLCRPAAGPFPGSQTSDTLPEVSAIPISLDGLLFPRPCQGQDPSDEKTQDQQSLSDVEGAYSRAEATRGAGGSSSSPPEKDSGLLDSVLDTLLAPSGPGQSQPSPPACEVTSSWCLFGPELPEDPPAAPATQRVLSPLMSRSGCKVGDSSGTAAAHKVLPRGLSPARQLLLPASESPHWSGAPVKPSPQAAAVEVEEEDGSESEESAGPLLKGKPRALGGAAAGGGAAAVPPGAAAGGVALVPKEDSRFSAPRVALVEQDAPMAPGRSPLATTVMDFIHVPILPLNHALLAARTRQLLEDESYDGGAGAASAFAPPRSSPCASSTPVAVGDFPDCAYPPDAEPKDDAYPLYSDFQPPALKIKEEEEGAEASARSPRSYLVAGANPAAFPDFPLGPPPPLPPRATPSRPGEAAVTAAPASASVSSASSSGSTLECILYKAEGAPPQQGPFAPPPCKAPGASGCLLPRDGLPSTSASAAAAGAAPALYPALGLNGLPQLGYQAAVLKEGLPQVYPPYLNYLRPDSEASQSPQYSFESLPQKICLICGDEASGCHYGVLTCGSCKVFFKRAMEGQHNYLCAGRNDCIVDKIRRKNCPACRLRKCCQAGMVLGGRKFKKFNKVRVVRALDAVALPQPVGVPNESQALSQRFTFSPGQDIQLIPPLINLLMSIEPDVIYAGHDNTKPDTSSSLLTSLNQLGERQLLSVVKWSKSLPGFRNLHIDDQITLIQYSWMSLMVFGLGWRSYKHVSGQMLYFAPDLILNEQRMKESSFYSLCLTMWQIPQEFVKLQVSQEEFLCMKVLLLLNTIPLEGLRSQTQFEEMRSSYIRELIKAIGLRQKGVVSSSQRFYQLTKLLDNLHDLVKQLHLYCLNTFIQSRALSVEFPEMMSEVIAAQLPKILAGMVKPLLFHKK

[6] = target: T4, Alpha-1A adrenergic receptor (Homo sapiens, UniProt P35348); format: functional, cell-based
T4 sequence (P35348 whole entry): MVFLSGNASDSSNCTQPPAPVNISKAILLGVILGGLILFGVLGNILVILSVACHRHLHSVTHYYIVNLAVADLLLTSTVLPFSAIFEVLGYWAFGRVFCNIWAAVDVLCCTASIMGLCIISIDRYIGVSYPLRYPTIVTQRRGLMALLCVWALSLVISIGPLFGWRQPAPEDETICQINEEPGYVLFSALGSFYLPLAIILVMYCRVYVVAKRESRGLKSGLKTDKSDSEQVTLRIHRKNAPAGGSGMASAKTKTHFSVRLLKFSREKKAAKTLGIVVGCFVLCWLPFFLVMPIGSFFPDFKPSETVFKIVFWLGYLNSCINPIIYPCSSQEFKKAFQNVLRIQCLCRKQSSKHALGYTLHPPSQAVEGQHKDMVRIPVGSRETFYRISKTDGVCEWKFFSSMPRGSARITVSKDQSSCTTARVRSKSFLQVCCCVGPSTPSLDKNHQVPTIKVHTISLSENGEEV

[7] = target: Histamine H3 receptor (Homo sapiens, UniProt Q9Y5N1)
[8] = target: T3, Progesterone receptor
[9] = target: T5, Thromboxane A2 receptor (Homo sapiens, UniProt P21731); format: functional, cell-based
T5 sequence (P21731 whole entry): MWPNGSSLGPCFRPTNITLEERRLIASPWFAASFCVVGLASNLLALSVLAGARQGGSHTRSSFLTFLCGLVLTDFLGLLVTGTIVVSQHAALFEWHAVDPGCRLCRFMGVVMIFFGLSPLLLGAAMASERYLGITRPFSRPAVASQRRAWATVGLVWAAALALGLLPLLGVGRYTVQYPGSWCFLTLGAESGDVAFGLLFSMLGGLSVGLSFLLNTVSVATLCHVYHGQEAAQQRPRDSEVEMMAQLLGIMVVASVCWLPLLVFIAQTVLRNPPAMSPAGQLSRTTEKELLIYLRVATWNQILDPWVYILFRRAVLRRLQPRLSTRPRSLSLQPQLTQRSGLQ

[10] = target: 5-hydroxytryptamine receptor 2A (Homo sapiens, UniProt P28223); format: functional, cell-based
[11] = target: 5-hydroxytryptamine receptor 2B (Homo sapiens, UniProt P41595); format: functional, cell-based
[12] = target: Sodium-dependent serotonin transporter (Homo sapiens, UniProt P31645)
Also: assay procedure not described here.

Sequence of Beta-1 adrenergic receptor (P08588 whole entry): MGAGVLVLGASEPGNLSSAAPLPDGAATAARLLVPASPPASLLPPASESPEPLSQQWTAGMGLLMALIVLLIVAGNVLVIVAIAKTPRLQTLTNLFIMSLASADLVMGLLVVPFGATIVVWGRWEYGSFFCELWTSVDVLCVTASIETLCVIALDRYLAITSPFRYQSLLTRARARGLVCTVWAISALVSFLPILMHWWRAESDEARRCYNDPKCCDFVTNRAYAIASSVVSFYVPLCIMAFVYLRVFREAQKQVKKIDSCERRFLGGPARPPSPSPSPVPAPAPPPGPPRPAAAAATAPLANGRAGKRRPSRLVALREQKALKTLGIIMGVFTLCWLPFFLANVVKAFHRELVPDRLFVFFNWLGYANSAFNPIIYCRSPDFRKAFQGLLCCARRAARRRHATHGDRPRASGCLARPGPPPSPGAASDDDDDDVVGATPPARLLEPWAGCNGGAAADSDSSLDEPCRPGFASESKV
Sequence of Histamine H3 receptor (Q9Y5N1 whole entry): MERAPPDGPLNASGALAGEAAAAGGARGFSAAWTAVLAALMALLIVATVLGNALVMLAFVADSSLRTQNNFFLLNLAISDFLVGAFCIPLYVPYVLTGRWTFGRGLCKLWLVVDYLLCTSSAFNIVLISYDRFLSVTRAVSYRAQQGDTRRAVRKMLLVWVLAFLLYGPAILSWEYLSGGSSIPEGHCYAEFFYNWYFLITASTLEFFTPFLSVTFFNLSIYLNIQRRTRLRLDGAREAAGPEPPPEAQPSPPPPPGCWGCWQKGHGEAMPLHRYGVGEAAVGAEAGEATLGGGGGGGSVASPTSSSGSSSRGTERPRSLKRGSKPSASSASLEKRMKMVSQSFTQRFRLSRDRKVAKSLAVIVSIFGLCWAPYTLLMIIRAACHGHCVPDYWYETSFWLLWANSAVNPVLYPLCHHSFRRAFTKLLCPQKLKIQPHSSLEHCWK
Sequence of 5-hydroxytryptamine receptor 2A (P28223 whole entry): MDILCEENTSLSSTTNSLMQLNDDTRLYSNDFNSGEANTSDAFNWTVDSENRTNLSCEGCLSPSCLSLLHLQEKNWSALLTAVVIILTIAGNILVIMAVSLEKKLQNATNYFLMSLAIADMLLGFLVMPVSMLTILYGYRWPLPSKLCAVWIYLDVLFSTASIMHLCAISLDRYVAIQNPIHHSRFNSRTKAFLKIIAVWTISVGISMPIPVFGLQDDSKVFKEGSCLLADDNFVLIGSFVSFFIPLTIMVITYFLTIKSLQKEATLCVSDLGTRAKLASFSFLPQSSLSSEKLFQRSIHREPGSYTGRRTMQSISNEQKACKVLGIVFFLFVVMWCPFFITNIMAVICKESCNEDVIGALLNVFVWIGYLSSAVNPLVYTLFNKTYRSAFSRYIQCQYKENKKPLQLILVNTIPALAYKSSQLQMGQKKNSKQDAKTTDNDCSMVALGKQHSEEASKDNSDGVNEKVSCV
Sequence of Cannabinoid receptor 1 (P21554 whole entry): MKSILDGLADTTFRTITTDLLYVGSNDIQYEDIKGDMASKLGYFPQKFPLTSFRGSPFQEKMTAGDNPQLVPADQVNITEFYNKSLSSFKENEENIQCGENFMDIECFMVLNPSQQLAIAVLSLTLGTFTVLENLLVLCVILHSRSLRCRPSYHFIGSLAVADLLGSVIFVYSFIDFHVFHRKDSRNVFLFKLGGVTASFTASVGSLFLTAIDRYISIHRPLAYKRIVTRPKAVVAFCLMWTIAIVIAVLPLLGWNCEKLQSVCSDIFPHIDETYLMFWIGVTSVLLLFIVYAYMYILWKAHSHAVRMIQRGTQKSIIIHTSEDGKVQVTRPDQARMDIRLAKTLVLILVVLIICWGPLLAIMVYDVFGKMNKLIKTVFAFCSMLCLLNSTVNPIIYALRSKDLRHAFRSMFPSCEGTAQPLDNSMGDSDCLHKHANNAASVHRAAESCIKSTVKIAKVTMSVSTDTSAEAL
Sequence of 5-hydroxytryptamine receptor 2B (P41595 whole entry): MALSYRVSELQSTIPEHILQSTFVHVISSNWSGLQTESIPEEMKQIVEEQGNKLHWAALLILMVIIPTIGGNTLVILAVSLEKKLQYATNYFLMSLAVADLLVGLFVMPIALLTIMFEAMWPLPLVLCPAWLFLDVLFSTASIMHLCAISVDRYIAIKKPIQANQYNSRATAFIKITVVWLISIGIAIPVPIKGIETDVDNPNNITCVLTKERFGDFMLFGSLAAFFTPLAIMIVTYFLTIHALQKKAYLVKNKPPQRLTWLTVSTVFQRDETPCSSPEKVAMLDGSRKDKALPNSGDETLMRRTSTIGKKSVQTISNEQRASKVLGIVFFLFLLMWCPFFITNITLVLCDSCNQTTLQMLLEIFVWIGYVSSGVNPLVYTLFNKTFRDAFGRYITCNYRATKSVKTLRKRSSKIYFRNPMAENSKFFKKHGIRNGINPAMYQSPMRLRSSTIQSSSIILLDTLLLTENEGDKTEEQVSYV
Sequence of Sodium-dependent serotonin transporter (P31645 whole entry): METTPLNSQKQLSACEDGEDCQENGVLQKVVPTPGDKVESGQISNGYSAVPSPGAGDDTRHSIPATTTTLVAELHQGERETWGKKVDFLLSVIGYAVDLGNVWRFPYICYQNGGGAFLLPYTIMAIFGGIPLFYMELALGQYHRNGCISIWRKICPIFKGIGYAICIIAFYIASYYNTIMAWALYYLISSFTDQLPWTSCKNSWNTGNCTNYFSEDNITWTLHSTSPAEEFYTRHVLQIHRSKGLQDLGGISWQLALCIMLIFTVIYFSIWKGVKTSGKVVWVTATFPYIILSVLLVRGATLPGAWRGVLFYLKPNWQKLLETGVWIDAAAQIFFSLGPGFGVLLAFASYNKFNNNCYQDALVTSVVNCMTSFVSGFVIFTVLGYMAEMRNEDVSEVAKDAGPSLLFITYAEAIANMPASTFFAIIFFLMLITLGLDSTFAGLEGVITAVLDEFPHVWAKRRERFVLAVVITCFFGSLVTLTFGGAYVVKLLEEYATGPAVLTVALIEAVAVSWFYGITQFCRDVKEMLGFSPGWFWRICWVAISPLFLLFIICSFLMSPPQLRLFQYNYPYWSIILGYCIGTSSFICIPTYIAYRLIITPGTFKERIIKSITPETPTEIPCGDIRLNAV

SMILES	AC50 [1] [µM]	AC50 [2] [µM]	AC50 [3] [µM]	AC50 [4] [µM]	AC50 [5] [µM]	AC50 [6] [µM]	AC50 [7] [µM]	AC50 [8] [µM]	AC50 [9] [µM]	AC50 [10] [µM]	AC50 [11] [µM]	AC50 [12] [µM]
COC(=O)CCc1ccc(OCC(O)CNC(C)C)cc1 (stereo unspecified) [ESMOLOL]	0.856	> 30	> 30	> 30	> 30							
CN(C)CCC=C1c2ccccc2CCc2ccccc21 [AMITRIPTYLINE]	22.7	> 30	> 10	> 30	> 30	> 30	> 30	> 30	> 30			
CC(=O)SCC(Cc1ccccc1)C(=O)NCC(=O)OCc1ccccc1 (stereo unspecified) [RACECADOTRIL]	> 30	> 30	> 10	> 30	> 30					> 30		
CNC1(C)C2CCC(C2)C1(C)C (stereo unspecified) [MECAMYLAMINE]	> 10	> 10	> 10		> 10					> 10		
C[C@H](Cn1cnc2c(N)ncnc21)OCP(=O)(O)O [TENOFOVIR ANHYDROUS]	> 30	> 30	> 30		> 30					> 30		
CC(=O)Oc1ccccc1C(=O)O [ASPIRIN]	> 10	> 30	> 10	> 30		> 30	> 30	> 30	> 30		> 30	
OCCOCCN1CCN(C(c2ccccc2)c2ccc(Cl)cc2)CC1 (stereo unspecified) [HYDROXYZINE]	> 10	> 30	> 10	> 30						> 30		
CCOC(=O)[C@H](CCc1ccccc1)N[C@@H](C)C(=O)N1Cc2ccccc2C[C@H]1C(=O)O	> 10	> 30	> 10	> 30		> 30	> 30	> 30	> 30		> 30	
C[C@]12CCC(=O)C=C1CC[C@H]1[C@@H]3CC[C@](O)(C(=O)CO)[C@@]3(C)C[C@H](O)[C@@]12F [FLUDROCORTISONE]	> 10	> 30	> 10	> 30						> 30		
CC(C)C[C@H](NC(=O)[C@H](Cc1ccccc1)NC(=O)c1cnccn1)B(O)O [BORTEZOMIB]	> 30	> 30	> 30		> 30					> 30		
CN(C)CCN(Cc1ccccc1)c1ccccn1 [TRIPELENNAMINE]	> 30	> 10	> 10			> 30	> 30		> 30	> 10	> 30	0.395
NCC1(CC(=O)O)CCCCC1 [GABAPENTIN]	> 30	> 30	> 10	> 30	> 30	> 30	> 30	> 30	> 30		> 30	
CCN(CC)CCn1c(=O)c(Cc2ccc(OC)cc2)nc2ccccc21 [CAROVERINE]	> 30	> 30	> 30	> 30	> 30					> 30		
CCOc1ccccc1OCCN[C@H](C)Cc1ccc(OC)c(S(N)(=O)=O)c1 [TAMSULOSIN]	2.5	> 30	> 10							> 30		
Cc1c(C)c2c(c(C)c1O)CCC(C)(COc1ccc(CC3SC(=O)NC3=O)cc1)O2 (stereo unspecified) [TROGLITAZONE]	20	> 30	> 30	> 30	> 30	> 30	> 30	3.55	17.6		> 30	
C=CC1=C(C(=O)O)N2C(=O)[C@@H](NC(=O)/C(=N\O)c3csc(N)n3)[C@H]2SC1	> 30	> 30	15.8							> 30		
